Measured values: patent publication US9822382B2, “Process for making ethanol by fermentation” (Evonik Degussa GmbH, priority 2014, dated 2017)

Experiments:
Format in all cases: cell-based
[1] = system: Yeast; test: Yeast viability and yeast flocculation in fermented mash, sugar cane ethanol production mill trial
Method: (§1) Bacterial and yeast cell counts, yeast cell viability and yeast flocculation were determined as described in A. J. Oliveira et al., Curso de treinamento em microbiologia, Piracicaba: FERMENTEC and ESALQ, 1996 and in A. J. Oliveira et al., Métodos para o controle microbiológico na produção de açúcar e álcool, Piracicaba: FERMENTEC, FEALQ and ESALQ, 1996. Bacterial infection rates were calculated as the ratio of the rod bacteria cell count and the yeast cell count.
(§2) Examples 9 to 11 were carried out in a sugar cane ethanol production mill operating 6 fermenters in fed-batch. The fermented mash is sent to a centrifuge which separates yeast cream with an average yeast content of 63% by weight. The yeast cream is diluted with water to an average yeast content of 27% by weight and transferred to a stirred yeast cream recovery tank. Diluted yeast cream is passed continuously from this tank to a stirred yeast treatment tank at a rate of from 42 to 127 m^3/h. Sulfuric acid is added to the yeast treatment tank to maintain a pH in the range from 1.8 to 2.8. The average residence time in both the yeast cream recovery tank and the yeast treatment tank is in the range of from 1.3 to 4.0 h. Fermentation is carried out by charging the acidified yeast concentrate to a fermenter over a 1 to 2 h period, followed by feeding sugar cane mash with a sugar content of 22° Brix and a pH of 5.8 to the fermenter over a 6 h period. Fermentation is continued for a further 2 h without feed and the fermented mash is sent to a centrifuge. Bacterial contamination was monitored by microbiological analysis of samples of fermented mash taken before feeding the mash to a centrifuge. Samples were analyzed for bacterial and yeast cell counts and for yeast cell viability and yeast flocculation.
(§3) In example 9, equilibrium peroxyacetic acid PERACLEAN® 15 of Evonik was dosed to the yeast treatment tank for 28 h in an amount of 60 ppm during days 3 and 4 of the experiment. pH in the yeast treatment tank was maintained in the range of from 1.84 to 2.02.
(§4) In example 10, equilibrium peroxyacetic acid PERACLEAN® 15 of Evonik was dosed to the yeast treatment tank for 43 h during days 6 and 7 of the experiment in an amount that was lowered stepwise from 49 ppm to 20 ppm. pH in the yeast treatment tank was maintained in the range of from 1.97 to 2.60.
(§5) In example 11, equilibrium peroxyacetic acid PERACLEAN® 15 of Evonik was dosed to the yeast cream recovery tank on days 2 and 3 of the experiment for 13 h in an amount of 50 ppm, followed by dosing for 28 h in an amount of 30 ppm. During this period the pH in the yeast cream recovery tank was in the range of from 3.0 to 3.3. Then dosing of peroxyacetic acid to the yeast cream recovery tank was stopped and peroxyacetic acid was dosed to the yeast treatment tank for 18 h in an amount of 30 ppm. During this period the pH in the yeast treatment tank was about 2.0.

[2] = system: Rod bacteria; test: Rod bacteria cell count and infection rate in fermented mash, sugar cane ethanol production mill trial
Method: as §1, §2, §3, §4, §5

[3] = system: Rod bacteria; test: Rod bacteria cell count and infection rate, laboratory treatment of yeast cream and fermentation
Method: as §1
(§6) The examples were carried out with a yeast cream obtained by separating yeast from a fermented sugar cane mush from a sugar cane ethanol production mill operating with batch fermentation and yeast recycle. The yeast cream was diluted with water to a yeast cell content of about 24% by weight and the pH of the diluted yeast cream was adjusted to a value of 1.8 by adding sulfuric acid.
(§7) Then 322 ml of acidified diluted yeast cream were placed in a vessel and 678 ml of cane must having a pH of 6.2 were added with mixing in 5 portions with 1 h intervals between additions. Fermentation of the cane must with the acidified diluted yeast cream was carried out at 33° C. for 21 h. The final pH of the fermented mash was 4.8.
(§8) In example 2, equilibrium peroxyacetic acid PERACLEAN® 15 of Evonik was added to the acidified diluted yeast cream in an amount of 50 mg/l and the resulting treated yeast concentrate was kept at 30° C. for 1.7 hours before it was analyzed microbiologically. Thereafter, fermentation was carried out as in example 1.
(§9) Examples 1 and 2 were repeated without adding peroxyacetic acid in example 3 and with addition of equilibrium peroxyacetic acid PERACLEAN® 15 in an amount of 60 mg/l peroxyacetic acid in example 4. The treated yeast cream was kept at 30° C. for 2 hours before it was analyzed microbiologically and fermentation was started.
as §6, with “that operates” for “operating”, “fed-batch” for “batch”, “27%” for “24%”, “weight. The” for “weight and the”, “4.0.” for “adjusted to a value of 1.8 by adding sulfuric acid.”
(§10) In example 6, equilibrium peroxyacetic acid PERACLEAN® 15 of Evonik was added to the diluted yeast cream in an amount of 50 mg/l and the resulting treated yeast concentrate was kept at 30° C. for 2.3 hours before it was analyzed microbiologically.
(§11) In example 8, the pH of the diluted yeast cream was adjusted as in example 7, equilibrium peroxyacetic acid PERACLEAN® 15 of Evonik was added to the acidified diluted yeast cream in an amount of 50 mg/l and the resulting treated yeast concentrate was kept at 30° C. for 2.0 hours before it was analyzed microbiologically.

[4] = system: Yeast; test: Yeast cell count and yeast cell viability, laboratory treatment of yeast cream and fermentation; conditions: for viability at 50 µg/mL / viability at 50 ppm / viability at 60 ppm: Saccharomyces cerevisiae
Method: as §1, §6, §7, §8, §9
as §6, with “that operates” for “operating”, “fed-batch” for “batch”, “27%” for “24%”, “weight. The” for “weight and the”, “4.0.” for “adjusted to a value of 1.8 by adding sulfuric acid.”
as §10, §11

[5] = Example 9, fermenter 2, day 3, 60 ppm to yeast treatment tank during days 3 and 4, pH 1.84 to 2.02
[6] = Example 9, fermenter 2, day 4, 60 ppm to yeast treatment tank during days 3 and 4, pH 1.84 to 2.02
[7] = Example 9, fermenter 2, day 5, after addition (60 ppm, days 3 and 4) was stopped
[8] = Example 9, fermenter 4, day 3, 60 ppm to yeast treatment tank during days 3 and 4, pH 1.84 to 2.02
[9] = Example 9, fermenter 4, day 4, 60 ppm to yeast treatment tank during days 3 and 4, pH 1.84 to 2.02
[10] = Example 9, fermenter 4, day 6, after addition (60 ppm, days 3 and 4) was stopped
[11] = Example 10, fermenter 2, day 6, 49 ppm lowered stepwise to 20 ppm to yeast treatment tank during days 6 and 7, pH 1.97 to 2.60
[12] = Example 10, fermenter 2, day 7, 49 ppm lowered stepwise to 20 ppm to yeast treatment tank during days 6 and 7, pH 1.97 to 2.60
[13] = Example 10, fermenter 2, day 8, after dosing during days 6 and 7
[14] = Example 10, fermenter 2, day 9, after dosing during days 6 and 7
[15] = Example 10, fermenter 3, day 6, 49 ppm lowered stepwise to 20 ppm to yeast treatment tank during days 6 and 7, pH 1.97 to 2.60
[16] = Example 10, fermenter 3, day 7, 49 ppm lowered stepwise to 20 ppm to yeast treatment tank during days 6 and 7, pH 1.97 to 2.60
[17] = Example 10, fermenter 3, day 8, after dosing during days 6 and 7
[18] = Example 10, fermenter 3, day 9, after dosing during days 6 and 7
[19] = Example 11, fermenter 3, day 2, 50 ppm then 30 ppm to yeast cream recovery tank on days 2 and 3, pH 3.0 to 3.3
[20] = Example 11, fermenter 3, day 4, after recovery tank dosing, 30 ppm to yeast treatment tank for 18 h, pH about 2.0
[21] = Example 11, fermenter 3, day 6, after the dosing periods
[22] = Example 11, fermenter 6, day 2, 50 ppm then 30 ppm to yeast cream recovery tank on days 2 and 3, pH 3.0 to 3.3
[23] = Example 11, fermenter 6, day 3, 50 ppm then 30 ppm to yeast cream recovery tank on days 2 and 3, pH 3.0 to 3.3
[24] = Example 11, fermenter 6, day 5, after the dosing periods
[25] = Example 2, 50 ppm, pH 1.8, fermented mash after 21 h
[26] = Example 2, 50 ppm, pH 1.8, treated yeast concentrate, 30° C. 1.7 hours
[27] = Example 4, 60 ppm, pH 1.8, fermented mash after 19 h
[28] = Example 4, 60 ppm, pH 1.8, treated yeast concentrate, 30° C. 2 hours
[29] = Example 6, 50 mg/l, no pH adjustment (pH 4.17), treated yeast concentrate, 30° C. 2.3 hours
[30] = Example 8, 50 mg/l, pH adjusted to 2.0 with sulfuric acid (pH 2.40), treated yeast concentrate, 30° C. 2.0 hours
[31] = treatment of the yeast concentrate at pH 1.8 before using it for the fermentation

CC(=O)OO [peroxyacetic acid]
Yeast flocculation in % [1, 5]: 53% | Yeast viability in % [1, 5]: 79% | Yeast flocculation in % [1, 6]: 5% | Yeast flocculation in % [1, 7]: 58% | Yeast viability in % [1, 7]: 82% | Yeast flocculation in % [1, 8]: 63% | Yeast viability in % [1, 8]: 85% | Yeast flocculation in % [1, 9]: 0% | Yeast flocculation in % [1, 10]: 55% | Yeast flocculation in % [1, 11]: 0% | Yeast flocculation in % [1, 12]: 0% | Yeast viability in % [1, 12]: 75% | Yeast flocculation in % [1, 13]: 0% | Yeast viability in % [1, 13]: 79% | Yeast flocculation in % [1, 14]: 37% | Yeast viability in % [1, 14]: 79% | Yeast flocculation in % [1, 15]: 0% | Yeast flocculation in % [1, 16]: 0% | Yeast viability in % [1, 16]: 70% | Yeast flocculation in % [1, 17]: 0% | Yeast viability in % [1, 17]: 78% | Yeast flocculation in % [1, 18]: 45% | Yeast viability in % [1, 18]: 84% | Yeast flocculation in % [1, 19]: 38% | Yeast viability in % [1, 19]: 82% | Yeast flocculation in % [1, 20]: 0% | Yeast viability in % [1, 20]: 76% | Yeast flocculation in % [1, 21]: 66% | Yeast flocculation in % [1, 22]: 0% | Yeast flocculation in % [1, 23]: 0% | Yeast viability in % [1, 23]: 89% | Yeast flocculation in % [1, 24]: 65% | Infection rate in % [2, 5]: 11% | Rod bacteria cells/ml [2, 5]: 28*10^6 cells/ml | Infection rate in % [2, 6]: 10% | Rod bacteria cells/ml [2, 6]: 39*10^6 cells/ml | Infection rate in % [2, 7]: 18% | Rod bacteria cells/ml [2, 7]: 51*10^6 cells/ml | Infection rate in % [2, 8]: 11% | Rod bacteria cells/ml [2, 8]: 53*10^6 cells/ml | Infection rate in % [2, 9]: 3% | Rod bacteria cells/ml [2, 9]: 20*10^6 cells/ml | Infection rate in % [2, 10]: 22% | Rod bacteria cells/ml [2, 10]: 57*10^6 cells/ml | bacterial contamination and yeast flocculation ([2]; Example 9, upon addition of 60 ppm to yeast treatment tank, return when addition is stopped): reduced | control of bacterial contamination and yeast flocculation ([2]; Example 10, continuous addition of 20 ppm to the acidified yeast concentrate): sufficient to control bacterial contamination and avoid yeast flocculation | Infection rate in % [2, 11]: 2.8% | Rod bacteria cells/ml [2, 11]: 9.6*10^6 cells/ml | Infection rate in % [2, 12]: 0.5% | Rod bacteria cells/ml [2, 12]: 1.4*10^6 cells/ml | Infection rate in % [2, 13]: 8.1% | Rod bacteria cells/ml [2, 13]: 24*10^6 cells/ml | Infection rate in % [2, 14]: 11% | Rod bacteria cells/ml [2, 14]: 29*10^6 cells/ml | Infection rate in % [2, 15]: 1.5% | Rod bacteria cells/ml [2, 15]: 3.0*10^6 cells/ml | Infection rate in % [2, 16]: 0.2% | Rod bacteria cells/ml [2, 16]: 0.7*10^6 cells/ml | Infection rate in % [2, 17]: 4.4% | Rod bacteria cells/ml [2, 17]: 13*10^6 cells/ml | Infection rate in % [2, 18]: 7.5% | Rod bacteria cells/ml [2, 18]: 22*10^6 cells/ml | effectiveness of addition depending on pH of yeast concentrate ([2]; Example 11, dosing at pH 3.0 to 3.3 versus about 2.0): effective only for an acidified yeast concentrate at a pH of less than 3.0 | Infection rate in % [2, 19]: 11% | Rod bacteria cells/ml [2, 19]: 32*10^6 cells/ml | Infection rate in % [2, 20]: 2% | Rod bacteria cells/ml [2, 20]: 8.4*10^6 cells/ml | Infection rate in % [2, 21]: 18% | Rod bacteria cells/ml [2, 21]: 24*10^6 cells/ml | Infection rate in % [2, 22]: 5% | Rod bacteria cells/ml [2, 22]: 23*10^6 cells/ml | Infection rate in % [2, 23]: 5% | Rod bacteria cells/ml [2, 23]: 14*10^6 cells/ml | Infection rate in % [2, 24]: 10% | Rod bacteria cells/ml [2, 24]: 25*10^6 cells/ml | Infection rate in % [3, 25]: 2.6% | Rod bacteria cells/ml [3, 25]: 6.1*10^6 cells/ml | Infection rate in % [3, 26]: 0.5% | Rod bacteria cells/ml [3, 26]: 2.9*10^6 cells/ml | Infection rate in % [3, 27]: 0.1% | Rod bacteria cells/ml [3, 27]: 0.22*10^6 cells/ml | Infection rate in % [3, 28]: 0.3% | Rod bacteria cells/ml [3, 28]: 1.8*10^6 cells/ml | Infection rate in % [3, 29]: 8.3% | Rod bacteria cells/ml [3, 29]: 68*10^6 cells/ml | Infection rate in % [3, 30]: 1.7% | Rod bacteria cells/ml [3, 30]: 14*10^6 cells/ml | effectiveness of treatment of the yeast concentrate against bacterial contamination ([3]; pH not adjusted to the claimed range by addition of acid (table 5)): ineffective | combined effect of pH adjustment with mineral acid and peroxyacetic acid addition ([3]; table 5, Examples 5 to 8): synergistic effect | bacterial contamination of the fermented mash [3, 31]: effective in preventing bacterial contamination | Yeast cells/ml [4, 25]: 230*10^6 cells/ml | Yeast cells/ml [4, 26]: 550*10^6 cells/ml | Yeast cells/ml [4, 27]: 180*10^6 cells/ml | Yeast cells/ml [4, 28]: 710*10^6 cells/ml | Yeast cells/ml [4, 29]: 820*10^6 cells/ml | Yeast cells/ml [4, 30]: 830*10^6 cells/ml | viability at 50 µg/mL ([4]; pH 2.4, Example 8, 50 mg/l, pH adjusted to 2.0 with sulfuric acid (pH 2.40), treated yeast concentrate, 30° C. 2.0 hours): 88% | viability at 50 ppm [4, 25]: 81% | viability at 50 ppm [4, 26]: 73% | viability at 60 ppm [4, 27]: 80% | viability at 60 ppm [4, 28]: 83% | viability at 50 µg/mL [4, 29]: 86% | yeast viability in the fermentation [4, 31]: does not affect yeast viability
